Results reported in PubChem BioAssay AID651630 (Sanford-Burnham Center for Chemical Genomics, 2012).
The source made the active and inactive calls.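 How the source made its calls: active means lipid-stain IC50 at or below a set limit, with nuclear-stain toxicity IC50 at least five times higher; inactive means the rest.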

Key:
[1] = tested on: TAG; assay: triacylglycerol accumulation inhibitor potency, dose response, cell-based, panel, Nile Red and DAPI fluorescence, H9c2 (AID 651630); conditions: H9c2 cells, Nile Red TAG fluorescence, oleic acid;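 further: cells exposed to compound overnight before fixation and staining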
[2] = tested on: DAPI; assay: as above; conditions: H9c2 cells, DAPI nuclear fluorescence (cytotoxicity counter-readout), oleic acid

| Compound | IC50 ([1]; mean of runs) | IC50 ([1]; run 1) [µM] | IC50 ([1]; run 2) [µM] | IC50 cytotoxicity (DAPI nuclear signal decrease) ([2]; mean of runs) | IC50 cytotoxicity (DAPI nuclear signal decrease) ([2]; run 1) [µM] | IC50 cytotoxicity (DAPI nuclear signal decrease) ([2]; run 2) [µM] |
| --- | --- | --- | --- | --- | --- | --- |
| CCCCCCSc1cc(-c2nc3ccc(Cl)cn3c2NC2CCCCC2)ccc1OC | 22.6 µM (inactive) | 20.4 | 24.7 | > 25 µM (inactive) | > 25 | > 25 |
| Cc1cc(C)nc(NC(=NCCc2c[nH]c3ccccc23)NC(=O)Nc2ccc(Cl)c(Cl)c2)n1 | 10.2 µM | 8.52 | 11.8 | > 25 µM (inactive) | > 25 | > 25 |
| COc1cc(NC(=O)Nc2nc(C(N)Cc3ccc(C(F)(F)F)cc3)cs2)cc(OC)c1OC (stereo not given) | 6.47 µM | 7.7 | 5.24 | – | 24.9 | > 25 |
| CC(C)c1ccc(Nc2ncc3c(n2)CCN(C(=O)Nc2ccc(F)c(Cl)c2)C3)cc1 | 4.65 µM | 2.95 | 6.36 | – | > 25 | > 25 |
| Cc1ccc(-n2cc(CNCCCn3cccn3)c(-c3cccc(C)c3)n2)cc1 | > 25 µM (inactive) | > 25 | > 25 | > 25 µM (inactive) | > 25 | > 25 |
| Cn1cc(/C=N/n2cnc3scc(-c4ccc(Cl)cc4)c3c2=O)c2ccccc21 | – | 5.8 | < 0.78 | – | > 25 | > 25 |
| COC(=O)c1c(NC(=S)NN2CCN(C)CC2)sc2c1CCC(C)C2 (stereo not given) | – | > 25 | 15.1 | 17.8 µM (inactive) | 18.5 | 17.1 |
| C#CCN(C[C@@H]1[C@@H](OC(=O)NCc2ccco2)[C@@H](OC(=O)NCc2ccco2)CN(C(=O)OC(C)C)N1C(=O)OC(C)C)S(=O)(=O)c1ccc(C)cc1 | 15.1 µM (inactive) | 16.2 | 14 | – | 16.5 | > 25 |
| CCOc1cc(CNc2ccc3c(c2)OCCO3)cc(Br)c1OCC | > 25 µM (inactive) | > 25 | > 25 | > 25 µM (inactive) | > 25 | > 25 |
| COc1cccc(C2c3c(C)nn(-c4ccc([N+](=O)[O-])cc4)c3N=C3C(=O)Nc4ccccc4N32)c1 (stereo not given) | 7.79 µM | 7.32 | 8.26 | > 25 µM (inactive) | > 25 | > 25 |
| Cc1ccc(Nc2nc(OC(C(F)(F)F)C(F)(F)F)nc(N3CCOCC3)n2)cc1 | 7.62 µM | 7.92 | 7.32 | – | 22.3 | > 25 |
| Cc1c(C#N)c(O)n(CCO)c(=O)c1N=Nc1ccc2c(c1)COC2=O | 16.5 µM (inactive) | 14.3 | 18.6 | 19.9 µM (inactive) | 24.4 | 15.3 |
| COc1ccc2sc(-c3ccc(N(C)C)cc3)c(C#CCO)c2c1 | 6.43 µM | 6.72 | 6.13 | > 25 µM (inactive) | > 25 | > 25 |
| O=C(/C=C/Sc1ccc(C(F)(F)F)cn1)c1ccccc1 | > 25 µM (inactive) | > 25 | > 25 | – | 21 | > 25 |
| FC(F)Oc1ccc(-c2csc(NNC3=NCCCCC3)n2)cc1 | 2.55 µM | 2.29 | 2.81 | – | > 25 | > 25 |
| COc1ccc(Nc2nc3cc(-c4sccc4C)sc3c(=O)n2C)cc1OC | 16.6 µM (inactive) | 16.8 | 16.5 | > 25 µM (inactive) | > 25 | > 25 |
| O=C(c1ccoc1)N1CCN(c2cc(-c3cccnc3)nc3cc(-c4cccc(Cl)c4)nn23)CC1 | 4.93 µM | 3.16 | 6.71 | – | > 25 | > 25 |
| CC(C)(C)N1C(=O)[C@H]2[C@@H](c3ccc(Br)cc3)N3C(=O)N(c4ccc(Br)cc4)C(=O)[C@@]3(Cc3ccccc3)[C@H]2C1=O | 17.2 µM (inactive) | 18.3 | 16 | > 25 µM (inactive) | > 25 | > 25 |
| Cc1ccc(Oc2ccc(S(=O)(=O)N3CCOCC3)cc2C(N)=O)c(-n2nc3ccccc3n2)c1 | > 25 µM (inactive) | > 25 | > 25 | > 25 µM (inactive) | > 25 | > 25 |
| CCOC(=O)c1sc2nc(CSc3ccccc3)nc(NCCN(C)C)c2c1C | 13.7 µM | 12.4 | 14.9 | > 25 µM (inactive) | > 25 | > 25 |
| Cc1cc(C)c2nc(NC(=O)c3ccc([N+](=O)[O-])o3)sc2c1 | > 25 µM (inactive) | > 25 | > 25 | > 25 µM (inactive) | > 25 | > 25 |

The next lines start with results.

| IC50 ([1]; mean of runs) | IC50 ([1]; run 1) [µM] | IC50 ([1]; run 2) [µM] | Compound | IC50 cytotoxicity (DAPI nuclear signal decrease) ([2]; mean of runs) | IC50 cytotoxicity (DAPI nuclear signal decrease) ([2]; run 1) [µM] | IC50 cytotoxicity (DAPI nuclear signal decrease) ([2]; run 2) [µM] |
| --- | --- | --- | --- | --- | --- | --- |
| 16.8 µM (inactive) | 16.9 | 16.7 | Cc1ccc(C(=O)NCCN2C3=NC[C@H](C(C)C)N3C[C@H]2Cc2ccc(O)cc2)cc1Br | > 25 µM (inactive) | > 25 | > 25 |
| 4.41 µM | 3.5 | 5.32 | O=[N+]([O-])c1ccccc1/C=C/C=N/Nc1ccc(S(=O)(=O)Nc2ccc(Cl)cc2)cc1[N+](=O)[O-] | – | > 25 | > 25 |
| > 25 µM (inactive) | > 25 | > 25 | COc1ccc(OC)c(NS(=O)(=O)c2ccc(N3CCCC3=O)cc2)c1 | > 25 µM (inactive) | > 25 | > 25 |
| – | > 25 | 8.23 | COc1cc(-c2noc(C)c2C#Cc2ccc(N)cc2)cc(OC)c1OC | > 25 µM (inactive) | > 25 | > 25 |
| > 25 µM (inactive) | > 25 | > 25 | COCCOC(=O)c1[nH]c2c(c1C)C(=O)CC(c1ccccc1)C2 (stereo not given) | > 25 µM (inactive) | > 25 | > 25 |
| 16.3 µM (inactive) | 15.5 | 17.2 | CCOc1cc(CNC(C)(C)C)ccc1OCC(=O)Nc1cccc(C(F)(F)F)c1 | > 25 µM (inactive) | > 25 | > 25 |
| > 25 µM (inactive) | > 25 | > 25 | O=C(N/N=C/c1ccc(Cl)cc1)c1sccc1OCc1ccc(F)cc1 | > 25 µM (inactive) | > 25 | > 25 |
| – | 14.1 | > 25 | CCOC(=O)c1cc(-c2ccncc2)nc2c1c(C)nn2-c1ccccn1 | > 25 µM (inactive) | > 25 | > 25 |
| > 25 µM (inactive) | > 25 | > 25 | CCCCOc1ccc(CSC2=NCCN2)cc1[N+](=O)[O-] | > 25 µM (inactive) | > 25 | > 25 |
| 1.68 µM | 1.65 | 1.71 | CCn1c(SCC(=O)Nc2nc(-c3ccc(C)cc3)cs2)nnc1-c1ccccc1O | – | > 25 | > 25 |
| 20.4 µM (inactive) | 19.9 | 20.9 | Cc1cc(NC(=O)c2sccc2C)n(-c2nc3ccccc3[nH]2)n1 | > 25 µM (inactive) | > 25 | > 25 |
| 9.51 µM | 8.88 | 10.1 | Nc1ccc2ccccc2c1N=Nc1ccccc1 | > 25 µM (inactive) | > 25 | > 25 |
| 15.4 µM (inactive) | 10.6 | 20.2 | O=C(Nc1nc2ccc(C(=O)N3CCCCC3)cc2s1)C1CCCCC1 | > 25 µM (inactive) | > 25 | > 25 |
| 2.45 µM | 2.11 | 2.79 | O=C1NC(Cc2ccc(O)cc2)c2nc3ccc(F)cc3c(=O)n2-c2cc3ccccc3cc21 (stereo not given) | – | > 25 | > 25 |
